Test results as given in US10568876B2, “Tetrahydroisoquinoline derivatives useful as inhibitors of diacylglyceride O-acyltransferase 2” (Merck Sharp & Dohme Corp., priority 2014, dated 2020).

Biological target: hDGAT2 (Homo sapiens (Human), UniProt Q96PD7)
Assay: DGAT2 Enzymatic Activity Assay
Assay type: biochemical
Conditions: hDGAT2 Sf-9 membrane prep; 25 μM diolein, 10 μM oleoyl-CoA; triolein product by LC/MS/MS; read-out: IC50 values for inhibition of DGAT2
Method in brief: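 Membranes from Sf-9 cells expressing untagged hDGAT2 (10 ng/μL) incubated at room temperature with 25 μM diolein and 10 μM oleoyl-CoA in 100 mM Tris pH 7.0, 20 mM MgCl2, 5% ethanol. Triolein product quantified by LC/MS/MS against spiked internal standard; IC50 from 4-parameter sigmoidal fit.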

Chain of hDGAT2 (Q96PD7 whole entry): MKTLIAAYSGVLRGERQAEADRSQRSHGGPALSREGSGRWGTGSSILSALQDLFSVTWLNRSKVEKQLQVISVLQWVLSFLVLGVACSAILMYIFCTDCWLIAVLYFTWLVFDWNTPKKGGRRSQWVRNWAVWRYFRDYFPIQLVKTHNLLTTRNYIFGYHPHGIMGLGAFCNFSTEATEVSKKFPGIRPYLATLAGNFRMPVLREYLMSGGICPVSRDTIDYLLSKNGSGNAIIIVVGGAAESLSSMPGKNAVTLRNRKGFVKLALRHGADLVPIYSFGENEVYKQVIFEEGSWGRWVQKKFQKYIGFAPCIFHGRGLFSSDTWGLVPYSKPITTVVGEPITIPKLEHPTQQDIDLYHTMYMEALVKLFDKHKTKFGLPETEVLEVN

Compound	IC50 [µM]
COc1cccc(-c2ccc(CNC(=O)C3CC3c3ccccc3)c3c2CCN(Cc2ccccc2)C3)c1 (centres unmarked) [Example 90, N-((2-benzyl-5-(3-methoxyphenyl)-1,2,3,4-tetrahydroisoquinolin-8-yl)methyl)-2-phenylcyclopropanecarboxamide]	4.85
Cc1noc([C@@H]2C[C@H]2C(=O)NCc2ccc(-c3cccc(OC(F)(F)F)c3)c3c2CN(Cc2cnccn2)CC3)n1 (relative stereo) [Example 107, (trans)-2-(3-methyl-1,2,4-oxadiazol-5-yl)-N-((2-(pyrazin-2-ylmethyl)-5-(3-(trifluoromethoxy)phenyl)-1,2,3,4-tetrahydroisoquinolin-8-yl)methyl)cyclopropanecarboxamide]	4.77
CC(C)(C)NC(=O)N1CCc2c(-c3cccc(-n4cccn4)c3)ccc(CNC(=O)[C@@H]3C[C@H]3c3ccccc3)c2C1 (relative stereo) [Example 34, 5-(3-(1H-pyrazol-1-yl)phenyl)-N-(tert-butyl)-8-(((trans)-2-phenylcyclopropanecarboxamido)methyl)-3,4-dihydroisoquinoline-2(1H)-carboxamide]	0.0116
COC(=O)c1cccc(-c2ccc(CNC(=O)C3CC3c3nc(C)no3)c3c2CCN(C(=O)NC(C)(C)C)C3)c1 (centres unmarked) [Example 21, methyl 3-(2-(tert-butylcarbamoyl)-8-((2-(3-methyl-1,2,4-oxadiazol-5-yl)cyclopropanecarboxamido)methyl)-1,2,3,4-tetrahydroisoquinolin-5-yl)benzoate]	0.0155
COC(=O)c1cccc(-c2ccc(CNC(=O)C3CC3c3ccccc3)c3c2CCN(C(=O)c2cccnc2)C3)c1 (centres unmarked) [Example 134, methyl 3-(2-nicotinoyl-8-((2-phenylcyclopropanecarboxamido)methyl)-1,2,3,4-tetrahydroisoquinolin-5-yl)benzoate]	3.56
COc1cccc(-c2ccc(CNC(=O)[C@H]3C[C@@H]3C(=O)O)c3c2CCN(C(=O)NC(C)(C)C)C3)c1 (relative stereo) [Example 84, (trans)-2-(((2-(tert-butylcarbamoyl)-5-(3-methoxyphenyl)-1,2,3,4-tetrahydroisoquinolin-8-yl)methyl)carbamoyl)cyclopropanecarboxylic acid]	1.34
CC(C)(C)NC(=O)N1CCc2c(-c3ccnc4[nH]ccc34)ccc(CNC(=O)[C@@H]3C[C@H]3c3ccccc3)c2C1 (relative stereo) [Example 32, N-(tert-butyl)-8-(((trans)-2-phenylcyclopropanecarboxamido)methyl)-5-(1H-pyrrolo[2,3-b]pyridin-4-yl)-3,4-dihydroisoquinoline-2(1H)-carboxamide]	1.46
COc1cccc(-c2ccc(CNC(=O)[C@H]3C[C@@H]3c3ccccc3)c3c2CCN(c2nccc(C(F)(F)F)n2)C3)c1 (relative stereo) [Example 109, (trans)-N-((5-(3-methoxyphenyl)-2-(4-(trifluoromethyl)pyrimidin-2-yl)-1,2,3,4-tetrahydroisoquinolin-8-yl)methyl)-2-phenylcyclopropanecarboxamide]	4.04
COC(=O)c1cccc(-c2ccc(CNC(=O)C3CC3c3ccccc3)c3c2CCN(CCC(F)(F)F)C3)c1 (centres unmarked) [Example 100, methyl 3-(8-((2-phenylcyclopropanecarboxamido)methyl)-2-(3,3,3-trifluoropropyl)-1,2,3,4-tetrahydroisoquinolin-5-yl)benzoate]	3.47
COc1cccc(-c2ccc(CNC(=O)C3CC3c3ccccc3)c3c2CCN(C(=O)CC(C)(C)C)C3)c1 (centres unmarked) [Example 114, N-((2-(3,3-dimethylbutanoyl)-5-(3-methoxyphenyl)-1,2,3,4-tetrahydroisoquinolin-8-yl)methyl)-2-phenylcyclopropanecarboxamide]	0.714
CC(C)(C)NC(=O)N1CCc2c(-c3cccc(C(F)(F)F)c3)ccc(CNC(=O)[C@@H]3C[C@H]3c3ccccc3)c2C1 (relative stereo) [Example 14, N-(tert-butyl)-8-(((trans)-2-phenylcyclopropanecarboxamido)methyl)-5-(3-(trifluoromethyl)phenyl)-3,4-dihydroisoquinoline-2(1H)-carboxamide]	0.034
COc1cccc(-c2ccc(CNC(=O)[C@@H]3C[C@H]3c3nc(C)no3)c3c2CCN(C(=O)NC(C)(C)C)C3)c1 (relative stereo) [Example 11, N-(tert-butyl)-5-(3-methoxyphenyl)-8-(((trans)-2-(3-methyl-1,2,4-oxadiazol-5-yl)cyclopropanecarboxamido)methyl)-3,4-dihydroisoquinoline-2(1H)-carboxamide]	0.003
CC(C)(C)NC(=O)N1CCc2c(-c3cnn(Cc4ccccc4)c3)ccc(CNC(=O)[C@@H]3C[C@H]3c3ccccc3)c2C1 (relative stereo) [Example 40, 5-(1-benzyl-1H-pyrazol-4-yl)-N-(tert-butyl)-8-(((trans)-2-phenylcyclopropanecarboxamido)methyl)-3,4-dihydroisoquinoline-2(1H)-carboxamide]	4.79
COc1cccc(-c2ccc(CNC(=O)[C@@H]3C[C@H]3c3ccccc3)c3c2CCN(C(=O)Nc2ccccn2)C3)c1 (relative stereo) [Example 15, 5-(3-methoxyphenyl)-8-(((trans)-2-phenylcyclopropanecarboxamido)methyl)-N-(pyridin-2-yl)-3,4-dihydroisoquinoline-2(1H)-carboxamide]	3.11
CC(=O)Nc1cccc(-c2ccc(CNC(=O)[C@@H]3C[C@H]3c3ccccc3)c3c2CCN(C(=O)NC(C)(C)C)C3)c1 (relative stereo) [Example 36, 5-(3-acetamidophenyl)-N-(tert-butyl)-8-(((trans)-2-phenylcyclopropanecarboxamido)methyl)-3,4-dihydroisoquinoline-2(1H)-carboxamide]	0.352
Cn1nccc1-c1ccc(CNC(=O)[C@@H]2C[C@H]2c2ccccc2)c2c1CCN(C(=O)NC(C)(C)C)C2 (relative stereo) [Example 30, N-(tert-butyl)-5-(1-methyl-1H-pyrazol-5-yl)-8-(((trans)-2-phenylcyclopropanecarboxamido)methyl)-3,4-dihydroisoquinoline-2(1H)-carboxamide]	1.17
COC(=O)c1cccc(-c2ccc(CNC(=O)C3CC3c3ccccc3)c3c2CCN(C(=O)C2(C(F)(F)F)CC2)C3)c1 (centres unmarked) [Example 123, methyl 3-(8-((2-phenylcyclopropanecarboxamido)methyl)-2-(1-(trifluoromethyl)cyclopropanecarbonyl)-1,2,3,4-tetrahydroisoquinolin-5-yl)benzoate]	1.32
